Reference: patent US11123330B2, “Methods and compositions for inhibiting mutant EGFR signaling” (The Governing Council of the University of Toronto, priority 2017, dated 2021)
Entries after “also recorded” stand apart in the source; their conditions may differ. One block for each compound: values may come before it.

Legend:
[1] = system: reporter cells expressing FGFR4 bait; experiment: Viability of reporter cells expressing FGFR4 bait; type: cell-based
Experimental: (§1) Cell viability assays. MaMTH stable bait cells or Ba/F3 cells were seeded into 96 well plates at 10,000 cells per well. For MaMTH stable cells, the cells were treated the next day with each inhibitor in a dose-dependent manner in addition to 0.5 ug/mL tetracyline to induce bait expression. For BaF3 cells, the cells were treated with each compound the same day as seeding. After 72 hours of drug treatment, cell viability was measured using the CellTiter-Glo assay (Promega).

[2] = system: reporter cells expressing ALK bait; experiment: Viability of reporter cells expressing ALK bait; type: cell-based
EGFR-WT = molecular target: T1, EGFR-WT (Homo sapiens, UniProt P00533); experiment: MaMTH assay, EGFR-WT bait with Shc1 prey; type: cell-based; settings: for interaction / complex formation with Shc1 (MaMTH, words): EGFR WT bait; for Average Percent / WT > 50% Inhibition: EGFR-WT bait, Shc1 prey; for Average Percent: retest in triplicate, MaMTH signal remaining (low = inhibition)
T1 construct: change the phosphorylation status of full-length EGFR proteins in the context of living cells; expressed in transfected cells

EGFR-L858R-T790M-C797S = molecular target: T2, EGFR-L858R-T790M-C797S (Homo sapiens, UniProt P00533, C797S/L858R/T790M); experiment: MaMTH / MaMTH-DS assay, EGFR-L858R-T790M-C797S bait with Shc1 prey; type: cell-based; settings: retest in triplicate, MaMTH signal remaining (low = inhibition)
T2 construct: change the phosphorylation status of full-length EGFR proteins in the context of living cells; expressed in transfected cells

MET = molecular target: T3, MET (Homo sapiens, UniProt P08581); experiment: MaMTH-DS assay, MET bait with Shc1 prey; type: cell-based
T3 construct: expressed in transfected cells
T3 sequence (P08581 308-1390 limits assumed): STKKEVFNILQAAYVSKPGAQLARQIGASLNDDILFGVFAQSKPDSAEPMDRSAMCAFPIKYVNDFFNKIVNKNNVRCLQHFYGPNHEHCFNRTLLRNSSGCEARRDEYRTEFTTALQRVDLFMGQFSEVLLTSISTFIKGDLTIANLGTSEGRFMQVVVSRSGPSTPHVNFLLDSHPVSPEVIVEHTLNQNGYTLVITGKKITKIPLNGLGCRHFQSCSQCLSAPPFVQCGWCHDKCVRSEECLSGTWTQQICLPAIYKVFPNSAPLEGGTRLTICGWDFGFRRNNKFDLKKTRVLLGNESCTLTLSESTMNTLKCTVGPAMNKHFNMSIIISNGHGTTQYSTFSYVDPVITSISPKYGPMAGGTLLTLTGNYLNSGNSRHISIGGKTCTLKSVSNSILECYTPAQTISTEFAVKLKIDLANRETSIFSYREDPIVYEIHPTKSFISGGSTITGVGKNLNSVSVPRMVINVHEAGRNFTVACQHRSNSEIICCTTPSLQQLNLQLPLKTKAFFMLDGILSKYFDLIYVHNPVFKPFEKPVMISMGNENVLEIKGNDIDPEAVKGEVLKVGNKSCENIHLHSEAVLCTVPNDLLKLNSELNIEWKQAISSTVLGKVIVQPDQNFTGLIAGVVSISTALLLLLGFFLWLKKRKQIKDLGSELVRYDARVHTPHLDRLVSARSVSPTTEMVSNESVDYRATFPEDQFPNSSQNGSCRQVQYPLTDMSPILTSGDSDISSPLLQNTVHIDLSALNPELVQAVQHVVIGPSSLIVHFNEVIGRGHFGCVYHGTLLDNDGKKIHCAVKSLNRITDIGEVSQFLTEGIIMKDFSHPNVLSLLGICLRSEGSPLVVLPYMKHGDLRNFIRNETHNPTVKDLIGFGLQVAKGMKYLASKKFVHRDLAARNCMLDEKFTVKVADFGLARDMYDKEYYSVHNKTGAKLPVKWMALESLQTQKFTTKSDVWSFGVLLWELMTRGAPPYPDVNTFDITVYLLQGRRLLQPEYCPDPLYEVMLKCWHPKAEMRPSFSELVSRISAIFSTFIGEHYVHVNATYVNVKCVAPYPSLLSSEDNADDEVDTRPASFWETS
T3 sequence (P08581 25-307 partner limits assumed): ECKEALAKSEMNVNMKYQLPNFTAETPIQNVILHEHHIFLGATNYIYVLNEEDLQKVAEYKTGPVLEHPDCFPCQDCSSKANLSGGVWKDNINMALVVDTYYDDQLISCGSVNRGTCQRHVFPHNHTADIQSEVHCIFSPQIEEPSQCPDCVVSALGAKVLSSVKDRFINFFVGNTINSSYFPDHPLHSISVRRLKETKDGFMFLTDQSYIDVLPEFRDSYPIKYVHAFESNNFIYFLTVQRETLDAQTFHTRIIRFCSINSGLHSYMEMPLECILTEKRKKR

FGFR4 = molecular target: T4, FGFR4 (Homo sapiens, UniProt P22455); experiment: MaMTH-DS assay, FGFR4 bait with Shc1 prey; type: cell-based
T4 construct: expressed in transfected cells
T4 sequence (P22455 22-802): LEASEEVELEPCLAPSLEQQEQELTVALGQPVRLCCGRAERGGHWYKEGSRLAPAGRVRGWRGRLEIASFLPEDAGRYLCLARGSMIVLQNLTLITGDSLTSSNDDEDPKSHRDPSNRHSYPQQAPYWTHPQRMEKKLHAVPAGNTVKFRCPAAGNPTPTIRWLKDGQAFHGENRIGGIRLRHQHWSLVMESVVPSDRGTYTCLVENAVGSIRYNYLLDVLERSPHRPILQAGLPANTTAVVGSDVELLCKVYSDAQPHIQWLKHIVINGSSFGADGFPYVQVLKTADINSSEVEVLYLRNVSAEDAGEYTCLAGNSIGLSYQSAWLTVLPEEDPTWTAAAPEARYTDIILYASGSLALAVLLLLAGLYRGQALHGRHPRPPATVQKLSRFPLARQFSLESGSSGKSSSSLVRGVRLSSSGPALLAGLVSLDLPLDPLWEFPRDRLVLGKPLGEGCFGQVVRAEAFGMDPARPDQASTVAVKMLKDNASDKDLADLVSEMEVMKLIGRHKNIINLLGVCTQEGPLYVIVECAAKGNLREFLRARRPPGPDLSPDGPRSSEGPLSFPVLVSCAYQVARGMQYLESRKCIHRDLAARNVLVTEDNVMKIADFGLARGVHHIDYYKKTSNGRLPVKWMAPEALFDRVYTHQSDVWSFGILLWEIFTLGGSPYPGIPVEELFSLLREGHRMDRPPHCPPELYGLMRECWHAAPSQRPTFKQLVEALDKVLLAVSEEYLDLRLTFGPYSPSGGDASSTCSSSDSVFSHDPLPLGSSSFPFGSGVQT

AXL = molecular target: T5, AXL (Homo sapiens, UniProt P30530); experiment: MaMTH-DS assay, AXL bait with Shc1 prey; type: cell-based
T5 construct: expressed in transfected cells
T5 sequence (P30530 26-894): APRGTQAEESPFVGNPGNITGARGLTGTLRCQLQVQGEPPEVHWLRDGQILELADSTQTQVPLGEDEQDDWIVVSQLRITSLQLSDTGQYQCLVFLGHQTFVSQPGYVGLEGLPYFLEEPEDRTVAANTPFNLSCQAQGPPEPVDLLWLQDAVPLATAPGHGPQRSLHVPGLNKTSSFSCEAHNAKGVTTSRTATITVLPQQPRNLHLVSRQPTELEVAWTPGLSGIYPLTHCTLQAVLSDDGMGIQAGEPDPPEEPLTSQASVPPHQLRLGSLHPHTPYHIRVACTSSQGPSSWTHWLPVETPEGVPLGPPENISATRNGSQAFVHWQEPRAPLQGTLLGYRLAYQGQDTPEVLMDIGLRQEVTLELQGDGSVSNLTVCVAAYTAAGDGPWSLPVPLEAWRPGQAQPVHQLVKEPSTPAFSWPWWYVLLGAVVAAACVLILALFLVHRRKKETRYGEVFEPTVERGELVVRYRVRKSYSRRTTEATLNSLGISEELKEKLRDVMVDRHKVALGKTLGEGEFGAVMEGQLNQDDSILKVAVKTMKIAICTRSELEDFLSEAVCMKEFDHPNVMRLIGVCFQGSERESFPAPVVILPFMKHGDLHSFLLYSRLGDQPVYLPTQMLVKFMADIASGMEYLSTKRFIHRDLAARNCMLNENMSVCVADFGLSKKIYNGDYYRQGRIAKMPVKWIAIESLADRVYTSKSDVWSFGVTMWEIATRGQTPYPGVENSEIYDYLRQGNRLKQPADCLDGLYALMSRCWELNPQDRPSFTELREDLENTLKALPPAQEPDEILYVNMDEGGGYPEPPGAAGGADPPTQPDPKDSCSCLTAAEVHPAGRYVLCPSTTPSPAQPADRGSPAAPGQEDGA
Text: To test MaMTH-DS sensitivity and its potential suitability for use in RTK drug screening, we selected several RTKs whose dysfunction is associated with cancer, and prepared stable MaMTH-DS ‘baits’ in our reporter cell lines. We then performed MaMTH-DS assays in the presence of transfected Shcl functional adapter protein ‘prey’ and small-molecule TKIs, including both control molecules and compounds known to specifically target the function of the corresponding RTKs. First, we examined the response of the RTK MET to the TKIs Crizotinib and Erlotinib using MaMTH-DS.
MaMTH assays. Cells stably expressing bait of interest (EGFR, MET, FGFR4, ALK, AXL) were seeded into 96-well TC-treated plates and grown at 37° C./5% CO2 overnight in DMEM/10% FBS/1% PS to ˜50-60% confluency. Cells were transfected with 50 ng/well of Nub-Shc1 ‘prey’ protein by calcium phosphate precipitation. Five hours after transfection, media was aspirated out and cells were treated with 100 uL of fresh media containing specific compound and 0.5 ug/ml of tetracyline to induce bait expression. After 24 hours, luciferase activity was measured by chemoluminescence.

ALK = molecular target: T6, ALK (Homo sapiens, UniProt Q9UM73); experiment: MaMTH-DS assay, ALK bait with Shc1 prey; type: cell-based
T6 construct: expressed in transfected cells
T6 sequence (Q9UM73 19-1620): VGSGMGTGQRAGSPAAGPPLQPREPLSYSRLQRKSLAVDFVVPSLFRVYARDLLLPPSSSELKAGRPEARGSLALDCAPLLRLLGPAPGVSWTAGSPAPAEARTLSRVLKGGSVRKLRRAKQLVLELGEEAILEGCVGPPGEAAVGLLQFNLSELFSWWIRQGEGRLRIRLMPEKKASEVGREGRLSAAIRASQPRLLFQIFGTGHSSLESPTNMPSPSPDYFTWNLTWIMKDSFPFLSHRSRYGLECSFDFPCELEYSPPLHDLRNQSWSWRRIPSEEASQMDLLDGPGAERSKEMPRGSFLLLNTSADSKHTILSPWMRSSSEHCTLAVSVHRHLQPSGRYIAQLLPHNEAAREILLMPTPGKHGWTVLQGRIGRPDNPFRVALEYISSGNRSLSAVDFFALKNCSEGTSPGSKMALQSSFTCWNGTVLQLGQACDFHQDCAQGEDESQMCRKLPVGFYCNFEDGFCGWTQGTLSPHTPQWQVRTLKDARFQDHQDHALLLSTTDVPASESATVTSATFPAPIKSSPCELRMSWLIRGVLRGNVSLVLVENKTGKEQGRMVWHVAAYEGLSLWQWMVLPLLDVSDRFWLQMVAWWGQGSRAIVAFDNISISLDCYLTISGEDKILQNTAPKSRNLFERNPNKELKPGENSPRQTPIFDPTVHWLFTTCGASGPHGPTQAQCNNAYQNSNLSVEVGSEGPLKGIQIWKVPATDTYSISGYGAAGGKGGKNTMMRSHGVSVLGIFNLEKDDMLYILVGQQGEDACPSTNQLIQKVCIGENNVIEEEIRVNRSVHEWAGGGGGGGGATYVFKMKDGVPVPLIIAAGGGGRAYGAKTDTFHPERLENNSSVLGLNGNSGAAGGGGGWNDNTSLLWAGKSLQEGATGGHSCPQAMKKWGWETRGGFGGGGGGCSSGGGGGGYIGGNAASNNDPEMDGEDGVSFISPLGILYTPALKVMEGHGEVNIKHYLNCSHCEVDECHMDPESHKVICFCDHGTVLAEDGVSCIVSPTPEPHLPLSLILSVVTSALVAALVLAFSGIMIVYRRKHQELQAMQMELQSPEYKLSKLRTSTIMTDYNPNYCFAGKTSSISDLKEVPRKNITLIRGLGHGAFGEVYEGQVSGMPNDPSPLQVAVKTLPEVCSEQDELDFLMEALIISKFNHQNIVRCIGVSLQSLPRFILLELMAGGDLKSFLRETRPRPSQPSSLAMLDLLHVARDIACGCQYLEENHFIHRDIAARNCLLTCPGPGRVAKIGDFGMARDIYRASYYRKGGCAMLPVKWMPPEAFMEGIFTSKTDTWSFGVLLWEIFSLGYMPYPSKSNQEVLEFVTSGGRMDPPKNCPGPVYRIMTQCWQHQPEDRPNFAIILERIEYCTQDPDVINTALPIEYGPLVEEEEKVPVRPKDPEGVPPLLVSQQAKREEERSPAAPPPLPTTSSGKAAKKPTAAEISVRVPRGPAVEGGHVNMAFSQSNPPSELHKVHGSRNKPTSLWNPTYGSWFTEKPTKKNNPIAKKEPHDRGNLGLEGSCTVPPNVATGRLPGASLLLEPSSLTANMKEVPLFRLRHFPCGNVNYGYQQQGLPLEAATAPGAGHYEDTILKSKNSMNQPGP

wild-type EGFR = molecular target: T7, wild-type EGFR (Homo sapiens, UniProt P00533); experiment: In vitro kinase assay, EGFR WT kinase domain; type: biochemical; settings: up to 10 micromolar
T7 construct: recombinant proteins of the kinase domain of wild-type EGFR; purchased Reaction Biology Corporation

EGFR ex19del/T790M/C797S = EGFR ex19del/T790M/C797S (Homo sapiens, UniProt P00533, C797S/DEL746-750/T790M); experiment: In vitro kinase assay, EGFR ex19del/T790M/C797S kinase domain; type: biochemical
[3] = system: reporter cells expressing MET bait; experiment: Viability of reporter cells expressing MET bait; type: cell-based
[4] = system: reporter cells expressing AXL bait; experiment: Viability of reporter cells expressing AXL bait; type: cell-based
Experimental: as §1

EGFR L858R/T790M = molecular target: T8, EGFR L858R/T790M (Homo sapiens, UniProt P00533, L858R/T790M); experiment: MaMTH assay, EGFR L858R/T790M bait with Shc1 prey; type: cell-based
T8 construct: change the phosphorylation status of full-length EGFR proteins in the context of living cells; expressed in transfected cells

EGFR ex19del-T790M = experiment: In vitro kinase assay, EGFR ex19del-T790M; type: biochemical
[5] = system: EGFR and downstream signaling molecules in PC9 EGFR-ex19del-T790M-C797S cells; experiment: EGFR activation and downstream signaling in PC9 EGFR-ex19del-T790M-C797S cells; type: cell-based
[6] = system: PC9 EGFR ex19del/T790M/C797S organoids; experiment: Organoid viability, PC9 EGFR ex19del/T790M/C797S organoids; type: cell-based; settings: 72 hours with compound
[7] = system: PC9 EGFR ex19del/T790M/C797S cells; experiment: Cell viability, PC9 EGFR ex19del/T790M/C797S cells; type: cell-based; settings: for cell viability in combination with compound 5213777: with 50 nM of compound 5213777, 72 hours, compared to alone; for cell viability in combination with Panitumumab: with 10 ug/ml Panitumumab, 72 hours
EGFR double mutants = experiment: In vitro kinase assay, EGFR double mutants; type: biochemical
[8] = system: Ba/F3 cells expressing EGFR-L858R-T790M-C797S; experiment: Ba/F3 cell viability (CellTiter-Glo), EGFR-L858R-T790M-C797S; type: cell-based; settings: for cell viability in combination with anti-EGFR antibody: with 68 nM Cetuximab or 140 nM Panitumumab
[9] = system: Ba/F3 cells expressing EGFR-ex19del-T790M-C797S; experiment: Ba/F3 cell viability (CellTiter-Glo), EGFR-ex19del-T790M-C797S; type: cell-based; settings: for cell viability in combination with anti-EGFR antibody: with 68 nM Cetuximab or 140 nM Panitumumab
[10] = system: EGFR and downstream signalling molecules in Ba/F3 EGFR-L858R-T790M-C797S cells; experiment: Western analysis of EGFR and downstream signalling, Ba/F3 EGFR-L858R-T790M-C797S; type: cell-based
[11] = system: EGFR and downstream signalling molecules in Ba/F3 EGFR-ex19del-T790M-C797S cells; experiment: Western analysis of EGFR and downstream signalling, Ba/F3 EGFR-ex19del-T790M-C797S; type: cell-based
[12] = system: PC9 EGFR ex19del/T790M/C797S cells; experiment: Caspase 3 and 7 activity, PC9 EGFR ex19del/T790M/C797S cells; type: cell-based
CFBE cells = experiment: Caspase 3 and 7 activity, CFBE cells; type: cell-based

SMILES: C=CC(=O)Nc1cccc(C)c1Nc1ncc2cc(-c3c(Cl)c(OC)cc(OC)c3Cl)ccc2n1 [BLU9931]
- reporter cell viability [1]: no effect

SMILES: COc1cc(N2CCC(N3CCN(C)CC3)CC2)ccc1Nc1ncc(Cl)c(Nc2ccccc2P(C)(C)=O)n1 [Brigatinib]
- reporter cell viability [2]: unaffected

SMILES: CCN(CC)c1ccc2cc(-c3nc4ccccc4o3)c(=O)oc2c1 [Compound 5213777, 3-(1,3-benzoxazol-2-yl)-7-(diethylamino)-2H-chromen-2-one]
- interaction / complex formation with Shc1 (MaMTH, words) (EGFR-WT): not
- Average Percent (EGFR-WT): 105.3%
- Average Percent (EGFR-L858R-T790M-C797S): 27.8%
- MaMTH-DS interaction with Shc1 (MET): not
- MaMTH-DS reporter activity (FGFR4): not
- MaMTH-DS reporter activity (AXL): not
- MaMTH-DS reporter activity (ALK): not
- effect on kinase activity (wild-type EGFR): no kinase inhibitory activity
- effect on kinase activity (EGFR ex19del/T790M/C797S): no kinase inhibitory activity; also recorded: does not inhibit the kinase activity

SMILES: C/C(=C\c1ccc(Cl)cc1)[N+](=O)[O-] [Compound 5238658]
- WT > 50% Inhibition (EGFR-WT): YES
- Average Percent (EGFR-WT): 0.9%
- Average Percent (EGFR-L858R-T790M-C797S): 0.2%

SMILES: C[C@@H](Oc1cc(-c2cnn(C3CCNCC3)c2)cnc1N)c1c(Cl)ccc(F)c1Cl [Crizotinib]
- reporter cell viability [3]: not due to a loss in cell viability

SMILES: COc1cc2c(Oc3ccc(NC(=O)C4(C(=O)Nc5ccc(F)cc5)CC4)cc3F)ccnc2cc1OCCCN1CCOCC1 [Foretinib]
- MaMTH-DS reporter activity (AXL): strongly reduced, in a dose-dependent manner
- reporter cell viability [4]: unaffected

SMILES: C=CC(=O)Nc1cc(Nc2nccc(-c3cn(C)c4ccccc34)n2)c(OC)cc1N(C)CCN(C)C [Osimertinib]
- cell viability in combination with anti-EGFR antibody [8]: does not cause enhanced reduction
- cell viability in combination with anti-EGFR antibody ([8]; listed as AZD9291): no such enhancement was evident
- cell viability in combination with anti-EGFR antibody [9]: does not cause enhanced reduction
- cell viability in combination with anti-EGFR antibody ([9]; listed as AZD9291): no such enhancement was evident
- caspase 3 and 7 activity [12]: not observed
- viability of PC9 organoids [6]: not observed

Second part, led by results:

- WT > 50% Inhibition (EGFR-WT): YES
- Average Percent (EGFR-WT): 21.5%
- Average Percent (EGFR-L858R-T790M-C797S): 11.7%
SMILES: CC1CC(Nc2ccccc2)c2ccccc2N1C(=O)c1cccs1 (stereo not drawn) [Compound 5304079]

- WT > 50% Inhibition (EGFR-WT): YES
- Average Percent (EGFR-WT): 6.2%
- Average Percent (EGFR-L858R-T790M-C797S): 0.9%
SMILES: O=c1c(Cl)c(Cl)cnn1Cc1ccccc1 [Compound 5357830]

- MaMTH-DS interaction with Shc1 (MET): not
- MaMTH-DS reporter activity (FGFR4): not
- MaMTH-DS reporter activity (AXL): not
SMILES: C#Cc1cccc(Nc2ncnc3cc(OCCOC)c(OCCOC)cc23)c1 [Erlotinib]

- interaction / complex formation with Shc1 (MaMTH, words) (EGFR-WT): not
- interaction / complex formation with Shc1 (MaMTH, words) (EGFR L858R/T790M): inhibited complex formation
- effect on kinase activity (EGFR ex19del/T790M/C797S): most robust inhibition
- effect on kinase activity (EGFR ex19del-T790M): preferentially inhibits
SMILES: CCc1nc(C(N)=O)c(Nc2ccc(N3CCC(N4CCN(C)CC4)CC3)c(OC)c2)nc1NC1CCOCC1 [Gilteritinib, 6-ethyl-3-[3-methoxy-4-[4-(4-methylpiperazin-1-yl)piperidin-1-yl]anilino]-5-(oxan-4-ylamino)pyrazine-2-carboxamide]
- phosphorylation and/or expression of EGFR and downstream signaling molecules [5]: inhibits EGFR activation and downstream signaling
- viability of PC9 organoids [6]: dose-dependent reduction
- cell viability in combination with compound 5213777 [7]: increased effect
- cell viability in combination with Panitumumab [7]: significantly enhanced

- Average Percent (EGFR-WT): 129.3%
- Average Percent (EGFR-L858R-T790M-C797S): 10.5%
- effect on kinase activity (wild-type EGFR): no significant effect
- effect on kinase activity (EGFR ex19del/T790M/C797S): strongly inhibited
- effect on kinase activity (EGFR double mutants): inhibits the kinase activity
SMILES: CO[C@@H]1[C@H](N(C)C(=O)c2ccccc2)C[C@H]2O[C@]1(C)n1c3ccccc3c3c4c(c5c6ccccc6n2c5c31)C(=O)NC4 [Midostaurin, N-[(9S,10R,11R,13R)-2,3,10,11,12,13-hexahydro-10-methoxy-9-methyl-1-oxo-9,13-epoxy-1H,9H-diindolo[1,2,3-gh:3′,2′,1′-lm]pyrrolo[3,4-j][1,7]benzodiazonin-11-yl]-N-methylbenzamide]
- cell viability ([8]; compound alone, 72 hours): robust, dose-dependent reduction
- cell viability in combination with anti-EGFR antibody [8]: Enhanced effect
- cell viability ([9]; compound alone, 72 hours): robust, dose-dependent reduction
- cell viability in combination with anti-EGFR antibody [9]: Enhanced effect
- phosphorylation and/or expression of EGFR and downstream signalling molecules [10]: strongest response
- phosphorylation and/or expression of EGFR and downstream signalling molecules [11]: strongest response
- phosphorylation and/or expression of EGFR and downstream signaling molecules [5]: inhibitory effect
- caspase 3 and 7 activity [12]: dose-dependent activation
- caspase 3 and 7 activity (CFBE cells): not observed
- viability of PC9 organoids [6]: dose-dependent reduction
- cell viability in combination with compound 5213777 [7]: increased effect
- cell viability in combination with Panitumumab [7]: Enhanced effects
